The source of these data is patent US7901667B2, “Bridgehead labelled compounds and methods of using the same” (Mallinckrodt Inc., priority 2005, dated 2011).

The conditions of series [1]: X = Tosylate, relative to tert-Butyl, cited from earlier work; for Relative rate of hydrolysis, calc.: calculated; for Relative rate of hydrolysis, exp.: experimental.
For a further series, the system named is α1-adrenoceptors. The conditions noted are these: cited from earlier work.
Series [2] concerns the target T1, human recombinant human 5-HT1A receptor subtype (Homo sapiens, UniProt P08908).
T1 construct: purchased Perkin Elmer (Boston, USA); host or cells: HEK-293 EBNA cells (membrane suspension)
T1 sequence (P08908 1-422): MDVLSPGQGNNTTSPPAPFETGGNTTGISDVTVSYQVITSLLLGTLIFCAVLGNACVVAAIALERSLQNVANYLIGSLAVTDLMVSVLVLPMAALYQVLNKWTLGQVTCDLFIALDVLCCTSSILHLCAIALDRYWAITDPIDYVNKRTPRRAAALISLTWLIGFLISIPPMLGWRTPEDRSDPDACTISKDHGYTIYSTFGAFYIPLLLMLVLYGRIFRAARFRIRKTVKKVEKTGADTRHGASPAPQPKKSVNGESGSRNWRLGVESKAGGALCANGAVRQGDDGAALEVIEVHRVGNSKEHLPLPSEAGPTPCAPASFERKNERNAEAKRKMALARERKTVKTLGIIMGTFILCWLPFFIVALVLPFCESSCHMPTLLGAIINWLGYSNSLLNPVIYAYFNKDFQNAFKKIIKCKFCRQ
Nature of the series: competitive binding assay with [^3H]8-OH-DPAT on membranes of HEK-293 EBNA-cells. Here is the method:
A membrane suspension from HEK-293 EBNA-cells expressing the human recombinant human 5-HT1A receptor subtype, was obtained from Perkin Elmer (Boston, USA). The protein concentration of the original suspension was 36.8 mg/mL.
Aliquots of these diluted membranes (factor 1:20) were incubated on microplates for 120 min at 37° C. in the dark. […] The incubation buffer contained 50 mM TRIS-HCl and 5 mM MgSO4 (pH to 7.4 at 25° C.). […] Non-specific binding was determined using 5-hydroxytryptamine (5-HT, serotonin) as a competitor in a concentration of 10 μM.
After the incubation period, the reaction was rapidly terminated by vacuum filtration over a GF/C glass fiber filters that were incorporated in the microplates and that were presoaked in 0.5% polyethylenimine (Sigma-Aldrich, Munich, Germany), and washed 5 times with ice-cold TRIS-HCl buffer. 25 μL of scintillation fluid (MicroScint™, Perkin Elmer, Boston, USA) were added to each well, after which the microplates were counted in a liquid scintillation counter (Topcount, Packard).
For each candidate tracer, the inhibition constant (Ki) was calculated from the […] for the 5-HT1A receptor with non-linear regression curve fitting using the computer program Graphpad Prism® (version 3.02).

For series [3] the following is noted: amide hydrolysis; cited from earlier work.
A further series has as its target T2, 5-HT1A receptors (Homo sapiens, UniProt P08908).
T2 sequence (P08908 1-422): T1 sequence (P08908 1-422)
The conditions noted are these: cited from earlier work.

The conditions of series [4]: at 60 min, relative to whole brain average; cited from earlier work.

For the compound `Cc1ccc(S(=O)(=O)OC23CC4CC(CC(C4)C2)C3)cc1` [1-Adamantyl], in series [1], the “Relative rate of hydrolysis, calc.” value is recorded as 10^−4 and the “Relative rate of hydrolysis, exp.” value is on record as 10^−3. Regarding `Cc1ccc(S(=O)(=O)OC23CCC(CC2)C3)cc1` [1-Norbornyl], in series [1], the “Relative rate of hydrolysis, calc.” value is listed as 10^−14 and the “Relative rate of hydrolysis, exp.” value was 10^−13. With `COc1ccccc1N1CCN(CCN(C(=O)c2ccc(F)cc2)c2ccccn2)CC1` [MPPF], the “affinity for the α1-adrenoceptors” value in the series with α1-adrenoceptors is reported as “quite high affinity”.

`COc1ccccc1N1CCN(CCN(C(=O)C23C4C5C2C2C3C4C52I)c2ccccn2)CC1` (stereo not drawn) [iodocubyl-WAY]: in series [2] ([^3H]8-OH-DPAT 1.1 nM, 120 min at 37° C., n=4, values only in FIG. 6), the “affinity towards the human 5-HT1A (Ki)” value was “subnanomolar range”. In addition, the “rank of affinity among the bridgehead iodo WAY derivatives” value in series [2] (iodobicyclooctyl, iodoadamantyl, iodonorbornyl and iodocubyl compared, FIG. 6) is “highest affinity”. `COc1ccccc1N1CCN(CCN(C(=O)C2CC3CCC2CC3)c2ccccn2)CC1` (stereo not drawn) [CPC-222]: in series [3], the stability towards hydrolysis entry is given as “stable towards hydrolysis”. For the same compound, the “affinity with regard to WAY-100635” value at 5-HT1A receptors was “comparable affinity”.

With `Cc1ccc(S(=O)(=O)OC23C4C5C6C4C2C6C53)cc1` (stereo not drawn) [Cubyl], in series [1], the “Relative rate of hydrolysis, calc.” value is given as <10^−25 and the “Relative rate of hydrolysis, exp.” value is recorded as 10^−10. For `Cc1ccc(S(=O)(=O)OC23CCC(CC2)CC3)cc1` [1-Bicyclo[2.2.2]octyl], in series [1], the “Relative rate of hydrolysis, calc.” value is 10^−8 and the “Relative rate of hydrolysis, exp.” value was 10^−7. Take `COc1ccccc1N1CCN(CCN(C(=O)C2CCC(F)CC2)c2ccccn2)CC1` (stereo not drawn) [FCWAY]: in series [4], the “skull uptake of [^18F]” value is given as “twice the whole brain average”. As for `COc1ccccc1N1CCN(CCN(C(=O)c2ccc([123I])cc2)c2ccccn2)CC1` [MPPI], the “affinity for the α1-adrenoceptors” value in the series on α1-adrenoceptors is “quite high affinity”.
